# From US20260174766A1, “COMBINATION OF MENIN INHIBITOR(S) AND IMMUNOPROTEASOME INHIBITOR(S) FOR TREATMENT OF LEUKEMIA” (Medizinische Hochschule Hannover, priority 2022, published 2026)
# How the values were obtained:
# [1] = test system: MLLr cell lines; assay: Cell growth (cell counting after trypan blue exclusion) of MLLr cell lines; format: cell-based, human; conditions: 50 nM or 100 nM PR-957, 96 hours, vs DMSO; FIG. 1G left
# Protocol: MOLM-13, MONO-MAC-6, THP-1, KOPN-8, ML-2, MV-4;11, OCI-AML3, U-937, KASUMI-1, K-562, HL-60 and LAMA-84 cells were purchased from DSMZ (Braunschweig, Germany). Cas9-Blast cell lines are subclones of the respective cell lines and stably transduced with lentiCas9-Blast (Addgene plasmid #52962). Cells were cultured in RPMI 1640 medium (Thermo Fisher Scientific, Waltham, MA, USA) supplemented with 10-20% FBS (Thermo Fisher Scientific) in a humid atmosphere of 5% CO2 at 37° C. MV4;11 cells harboring Menin-inhibitor resistance mediating mutations of Menin were generated by CRISPR-Cas9 technology.
# Cellular proliferation was assessed by cell counting after trypan blue exclusion. Apoptosis of cells was measured by flow cytometry using Annexin V/SYTOX® Blue staining following the manufacturer's instruction.
# [2] = test system: human MLL-rearranged AML cell lines; assay: Cell cycle analysis (EdU, % cells in S phase); format: cell-based; conditions: 100 nM PR-957, 24 hours; MOLM-13, MV-4;11, ML-2, KOPN-8; FIG. 1I
# Protocol: Immunophenotyping of immature and mature cell compartments and of leukemic cells was performed as described before (Heidel et al., 2013; Heidel et al., 2012). The antibodies used for cell surface staining are provided in Table 1 at the end of section 2 (“Key Resource Table”). Cells were stained in PBS/1% FBS for 1.5 hours at 4° C. SYTOX® Blue Dead Cell Stain (Life Technologies, Darmstadt, Germany) was used to exclude dead cells. Flow cytometry was performed on a LSR-Fortessa or FACS Canto II cytometer (Becton Dickinson, Heidelberg, Germany). Cell cycle analysis was performed using the Click-iT™ Plus EdU Alexa Fluor™ 647 Assay Kit (Thermo Scientific, Waltham, MA, USA) as per the manufacturer's instructions.
# Samples were labeled for FACs based analysis of cell cycle using the Click-iTR EdU assay. n=3 independent experiments; paired t test.
# [3] = test system: MLLr leukemic cells (MLL-AF9 and MLL-AF4 PDX); assay: Patient derived xenografts (MLL-AF9, MLL-AF4) in NSGW41 mice treated with PR-957; format: in vivo, mouse
# Description: NOD.Cg-Prkdc^scid Il2rg^tm1Wjl Tg(CMV-IL3, CSF2, KITLG) 1Eav/MloySzJ (NSGS), NOD.Cg-Prkdc^scid Il2rg^tm1Wjl/SzJ (NSG) or NOD.Cg-Prkdc^scid Il2rg^tm1Wjl/RJ (NXG) were obtained from The Jackson Laboratory (Bar Harbor, ME, USA). 8-12-weeks old adult mice (male and female) were irradiated with 2 Gy (single dose) before transplantation. 1×10^5 MOLM-13, ML-2 or MV-4; 11 cells transduced with either of two PSMB8/LMP7 shRNAs or non-targeting control; with a pLEX vector containing the sequence of BASP1 or an empty vector; or treated ex vivo with the indicated inhibitors were injected intravenously via the tail vein. For patient derived xenograft experiments (PDX) of human MLLr leukemia we used an improved model for human HSC transplantation and analysis, that has been developed from immune-deficient mouse strains containing Kit mutations: NOD.Cg-^KitW-41J Prkdc^scid Il2rg^tm1Wjl/WaskJ (NSGW41) (Cosgun et al., 2014). These mice can be engrafted without prior conditioning and therefore maintain an intact niche and microenvironment. Human myeloid engraftment (hCD45+ CD13+) was analyzed by flow cytometry.
# In order to assess for the functional relevance of immunoproteasome component LMP7/PSMB8 in human AML, genetic inactivation of LMP7/PSMB8 by RNAi was performed with two independent shRNAs against LMP7/PSMB8 (shPSMB8-3 and shPSMB8-2) compared to non-targeting control (shNT) in MLLr cell lines. […] However, induction of apoptosis could only be detected in less than 40% of cells with no significant variability between MLLr cell lines and the individual shRNAs. Efficient LMP7/PSMB8 depletion was confirmed by Western blotting (FIG. 1E). […] Following xenotransplantation, the relative abundance of human AML cells in the murine peripheral blood was measured over time by flow cytometry, and PR-957 treatment was initiated once hCD45+ AML cells constituted 0.1%-0.5% of PB cells. […]
# [4] = test system: normal hematopoietic cells; assay: Normal hematopoiesis: competitive transplantation after in vivo PR-957 treatment; design: species or system mouse
smiles,measurement,setting,value
"COc1ccc(C[C@H](NC(=O)[C@H](C)NC(=O)CN2CCOCC2)C(=O)N[C@@H](Cc2ccccc2)C(=O)[C@]2(C)CO2)cc1 [PR-957, (2S)-3-(4-methoxyphenyl)-N-[(2S)-1-[(2S)-2-methyloxiran-2-yl]-1-oxo-3-phenylpropan-2-yl]-2-[[(2S)-2-[(2-morpholin-4-ylacetyl)amino]propanoyl]amino]propanamide]",cell growth in MLLr cell lines,[1],dose-dependent and specific reduction of cell growth
same,cell cycle activity (% of cells in S phase),[2],reduced cell cycle activity
same,antileukemic activity in PDX models,"[3]; 3 mg/KG i.v. 5 consecutive days, every 2 weeks, escalated to 6 and 10 mg/KG, NSGW41 mice",potent antileukemic activity
same,cell morphology of AML cells (cytospin analysis),"[3]; PDX after onset of AML, FIG. 1K",signs of cellular differentiation
same,survival and disease penetrance in PDX,"[3]; over a period of 100 days, FIG. 1J",improved survival and reduced disease penetrance
same,hematopoietic stem- and progenitor cell abundance,"[4]; PR-957 for 3 weeks (10 mg/kg, 5 days/week), FIGS. 2K,L,M",did not show any changes
same,stem- and progenitor cell chimerism in secondary recipients,"[4]; previous PR-957 treatment, FIGS. 2O,P,Q",not affected
same,peripheral blood chimerism in secondary recipient mice,"[4]; until week 16, FIG. 2N",no changes
